{
  "source": "patent US11260070B2",
  "about": "“Methods of treating feline coronavirus infections” (GILEAD SCIENCES, INC., priority 2017, dated 2022)",
  "key": {"[1]": {"assay": "CellTox Green Cytotoxicity Assay in uninfected CRFK cells", "assay_type": "cell-based", "details": "cat (feline), 72 hour incubation", "procedure": "Compound 1 was screened for cytotoxicity in uninfected CRFK cells using a commercially available CellTox Green Cytotoxicity Assay (Promega). The assayed was performed in a 96 well place formate using serial dilution of Compound 1 in sextuplicate. Compound concentration associated with 50% cytotoxicity (CC50) following 72 hour incubation was calculated by regression analysis."}, "feline coronavirus": {"tested_on": "feline coronavirus", "assay": "In vitro antiviral assay: virus-induced cytopathic effect in CRFK cells (crystal violet staining)", "assay_type": "cell-based", "procedure": "Compound 1 was screened for activity against feline Coronaviruses in an in vitro assay. Serial dilutions of Compound 1 were mixed with 2.5×10^4 copies of feline coronavirus and added in sextuplicate to 96 well plates with pre-seeded CRFK cells. The plates were incubated for 72 hours followed by a staining of the cell culture monolayers with crystal violet. The level of virus-induced cytopathic effect was quantified visually and using a plate reader. Positive control wells comprised the virus without Compound 1. Negative control wells lacked both virus and Compound 1. The EC50 was calculated by regression analysis."}},
  "note": "Where two headings read alike, the source gives them in different places.",
  "data": [
    {"smiles": "N#C[C@@]1(c2ccc3c(N)ncnn23)O[C@H](CO)[C@@H](O)[C@H]1O", "note": "[Compound 1, (2R,3R,4S,5R)-2-(4-aminopyrrolo[2,1-f][1,2,4]triazin-7-yl)-3,4-dihydroxy-5-(hydroxymethyl)tetrahydrofuran-2-carbonitrile]", "values": [
      {"measurement": "CC50 at 72 h", "setting": "[1]", "value": "> 100000", "unit": "nM"},
      {"measurement": "EC50", "setting": "feline coronavirus; Alphacoronavirus 1, CRFK, read-out: EC50 (FIG. 1 legend)", "value": 750, "unit": "nM"},
      {"measurement": "EC50", "setting": "feline coronavirus; Alphacoronavirus 1, feline coronavirus in CRFK cells, 72 hours incubation, regression analysis (Table 1), read-out: EC50", "value": 770, "unit": "nM"},
      {"measurement": "inhibition of feline coronavirus", "setting": "feline coronavirus; CRFK cells, at 3, 2 and 1 μM, FIG. 1", "value": "~100", "unit": "%"}
    ]}
  ]
}
